Measurements reported in PubChem BioAssay AID248 (DTP/NCI, 2004).
Values joined by “and” are separate entries in the source; they are usually repeats but may differ in a detail not shown here. Equal values may be shown once. Toxic doses and inconclusive results are not listed. Rule as the data show it: active = T/C of 150% or more; inactive = T/C below 125%.

System: L1210 leukemia ip in BDF1 mice, survival T/C
Assay: NCI In Vivo Anticancer Drug Screen. Data for tumor model L1210 Leukemia (intraperitoneal) in B6D2F1 (BDF1) mice
Conditions: endpoint: mean survival time, higher = longer survival
In short: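 Tumor cells were implanted, animals were treated, and survival was followed. The result divides the treated measurement by the vehicle-control measurement.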

[1] = dose: 50.0 mg/kg/injection, schedule: Q01DX001 (ip), vehicle: saline
[2] = dose: 100.0 mg/kg/injection, schedule: Q01DX001 (ip), vehicle: saline
[3] = dose: 200.0 mg/kg/injection, schedule: Q01DX001 (ip), vehicle: saline
[4] = dose: 400.0 mg/kg/injection, schedule: Q01DX001 (ip), vehicle: saline
[5] = dose: 100.0 mg/kg/injection, schedule: Q04DX002 (ip), vehicle: saline with Tween-80
[6] = dose: 50.0 mg/kg/injection, schedule: Q01DX009 (ip), vehicle: saline with Tween-80
[7] = dose: 100.0 mg/kg/injection, schedule: Q01DX009 (ip), vehicle: saline with Tween-80
[8] = dose: 200.0 mg/kg/injection, schedule: Q01DX009 (ip), vehicle: saline with Tween-80
[9] = dose: 100.0 mg/kg/injection, schedule: Q01DX001 (ip), vehicle: saline with Tween-80
[10] = dose: 100.0 mg/kg/injection, schedule: Q04DX003 (ip), vehicle: saline with Tween-80
[11] = dose: 100.0 mg/kg/injection, schedule: Q04DX002 (ip), vehicle: Klucel (hydroxypropylcellulose) (HPC)
[12] = dose: 50.0 mg/kg/injection, schedule: Q01DX009 (ip), vehicle: Klucel (hydroxypropylcellulose) (HPC)
[13] = dose: 100.0 mg/kg/injection, schedule: Q01DX009 (ip), vehicle: Klucel (hydroxypropylcellulose) (HPC)
[14] = dose: 200.0 mg/kg/injection, schedule: Q01DX009 (ip), vehicle: Klucel (hydroxypropylcellulose) (HPC)
[15] = dose: 400.0 mg/kg/injection, schedule: Q01DX009 (ip), vehicle: saline with Tween-80

Measured: T/C

COC(=O)N1C2CC=C(C)CC21 (stereo unspecified)
inactive: dose: 75.0 mg/kg/injection, schedule: Q01DX001 (ip), vehicle: saline 94 % of control | dose: 150.0 mg/kg/injection, schedule: Q01DX001 (ip), vehicle: saline 104 % of control | dose: 300.0 mg/kg/injection, schedule: Q01DX001 (ip), vehicle: saline 100 % of control

O=c1[nH]c(=S)[nH]c(-c2ccccc2)c1Cc1ccccc1
inactive: [1] 100 % of control | [2] 96 % of control | [3] 94 % of control | [4] 94 % of control

CC(=O)c1cc(C(C)=O)c2cc(C)cc(O)c2c1O
inactive: [2] 103 % of control

Cc1c([N+](=O)[O-])cc(C(C)(C)C)c(OS(C)(=O)=O)c1[N+](=O)[O-]
inactive: dose: 25.0 mg/kg/injection, schedule: Q04DX002 (ip), vehicle: saline with Tween-80 92 % of control | dose: 50.0 mg/kg/injection, schedule: Q04DX002 (ip), vehicle: saline with Tween-80 99 % of control | [5] 96 % of control

COC(C(=O)O)c1cccs1 (stereo unspecified)
inactive: [6] 91 % of control | [7] 86 % of control | [8] 100 % of control

CCCCCCCCCCN1CCN2C(=O)N(CC)CCC2C1 (stereo unspecified)
inactive: dose: 25.0 mg/kg/injection, schedule: Q04DX003 (ip), vehicle: saline with Tween-80 94 % of control | dose: 50.0 mg/kg/injection, schedule: Q04DX003 (ip), vehicle: saline with Tween-80 105 % of control | [9] 96 % of control | [10] 94 % of control

COc1cc2c(cc1OC)N(C(C)=O)Cc1ccc(C=O)n1C2
inactive: dose: 25.0 mg/kg/injection, schedule: Q04DX002 (ip), vehicle: Klucel (hydroxypropylcellulose) (HPC) 105 % of control | dose: 50.0 mg/kg/injection, schedule: Q04DX002 (ip), vehicle: Klucel (hydroxypropylcellulose) (HPC) 97 % of control | [11] 90 % of control

N/C(N=P(c1ccccc1)(c1ccccc1)c1ccccc1)=N\[N+](=O)[O-]
inactive: dose: 100.0 mg/kg/injection, schedule: Q04DX002 (ip), vehicle: gum acacia 101 % of control | dose: 200.0 mg/kg/injection, schedule: Q04DX002 (ip), vehicle: gum acacia 107 % of control | dose: 400.0 mg/kg/injection, schedule: Q04DX002 (ip), vehicle: gum acacia 101 % of control

CCCC(C)C(=O)OCP(=O)(COC(=O)C(C)CCC)COC(=O)C(C)CCC (stereo unspecified)
inactive: [9] 97 % of control | dose: 200.0 mg/kg/injection, schedule: Q01DX001 (ip), vehicle: saline with Tween-80 89 % of control

CC(C)/C(=N\N=C(\c1ccccc1)C(C)C)c1ccccc1
inactive: [5] 94 % of control | dose: 200.0 mg/kg/injection, schedule: Q04DX002 (ip), vehicle: saline with Tween-80 87 % of control | dose: 400.0 mg/kg/injection, schedule: Q04DX002 (ip), vehicle: saline with Tween-80 97 % of control

Cc1ccccc1CO
inactive: [1] 97 % of control | [2] 97 % of control | [3] 97 % of control | [4] 100 % of control

CS(=O)(=O)N(CC(=O)O)Cc1cccc(Br)c1
inactive: dose: 50.0 mg/kg/injection, schedule: Q01DX005 (ip), vehicle: other 107 % of control | dose: 100.0 mg/kg/injection, schedule: Q01DX005 (ip), vehicle: other 120 % of control | dose: 200.0 mg/kg/injection, schedule: Q01DX005 (ip), vehicle: other 100 % of control

S=c1n(Cc2ccccc2)cnc2ncnn12
inactive: [12] 93 % of control | [13] 97 % of control | [14] 95 % of control

COc1cc(CC2=NCCc3cc(OC)c(OCc4ccccc4)cc32)ccc1OCc1ccccc1
inactive: [7] 94 % of control | [8] 100 % of control

O=C(CNC(=O)c1ccccc1)N/N=C\c1c[nH]c2ccccc12
inactive: [7] 97 % of control | [8] 99 % of control | [15] 100 % of control

COC1OC(COC(=O)c2ccccc2)C(OC(=O)c2ccccc2)C(OC(=O)c2ccccc2)C1OS(=O)(=O)c1ccc(C)cc1 (stereo unspecified)
inactive: [11] 103 % of control | dose: 200.0 mg/kg/injection, schedule: Q04DX002 (ip), vehicle: Klucel (hydroxypropylcellulose) (HPC) 88 % of control | dose: 400.0 mg/kg/injection, schedule: Q04DX002 (ip), vehicle: Klucel (hydroxypropylcellulose) (HPC) 88 % of control

CC(=O)c1ccc2ccccc2c1O
inactive: dose: 100.0 mg/kg/injection, schedule: Q01DX009 (ip), vehicle: other 97 % of control | dose: 100.0 mg/kg/injection, schedule: Q04DX003 (ip), vehicle: saline 101 % of control | dose: 200.0 mg/kg/injection, schedule: Q01DX009 (ip), vehicle: other 103 % of control | dose: 200.0 mg/kg/injection, schedule: Q04DX003 (ip), vehicle: saline 90 % of control | dose: 400.0 mg/kg/injection, schedule: Q01DX009 (ip), vehicle: other 106 % of control | dose: 400.0 mg/kg/injection, schedule: Q04DX003 (ip), vehicle: saline 88 % of control

Nc1cc(N)ncn1
inactive: dose: 25.0 mg/kg/injection, schedule: Q01DX009 (ip), vehicle: Klucel (hydroxypropylcellulose) (HPC) 101 % of control | [12] 98 % of control | [13] 102 % of control

O=C1C=C2C(=CCOC2O)O1 (stereo unspecified)
inactive: dose: 0.25 mg/kg/injection, schedule: Q01DX009 (ip), vehicle: Klucel (hydroxypropylcellulose) (HPC) 97 % of control | dose: 0.5 mg/kg/injection, schedule: Q01DX009 (ip), vehicle: Klucel (hydroxypropylcellulose) (HPC) 103 % of control | dose: 1.0 mg/kg/injection, schedule: Q01DX009 (ip), vehicle: Klucel (hydroxypropylcellulose) (HPC) 109 % of control | dose: 2.0 mg/kg/injection, schedule: Q01DX009 (ip), vehicle: Klucel (hydroxypropylcellulose) (HPC) 104 % of control | dose: 4.0 mg/kg/injection, schedule: Q01DX009 (ip), vehicle: Klucel (hydroxypropylcellulose) (HPC) 101 % of control

CC(C)(OC(=O)C(NC=O)C(C)(C)S)OC(=O)C(NC=O)C(C)(C)S (stereo unspecified)
inactive: [10] 98 % of control | dose: 200.0 mg/kg/injection, schedule: Q04DX003 (ip), vehicle: saline with Tween-80 95 % of control | dose: 400.0 mg/kg/injection, schedule: Q04DX003 (ip), vehicle: saline with Tween-80 100 % of control

O=[N+]([O-])c1ccc(Cl)nc1
inactive: [2] 103 % of control | dose: 100.0 mg/kg/injection, schedule: Q01DX009 (ip), vehicle: saline sonified 100 % of control | [3] 101 % of control | dose: 200.0 mg/kg/injection, schedule: Q01DX009 (ip), vehicle: saline sonified 104 % of control | [4] 103 % of control

CC(=O)n1c2ccccc2c2nc3cnccc3nc21
inactive: dose: 16.0 mg/kg/injection, schedule: Q01DX005 (ip), vehicle: saline 97 % of control | dose: 32.0 mg/kg/injection, schedule: Q01DX005 (ip), vehicle: saline 97 % of control | dose: 64.0 mg/kg/injection, schedule: Q01DX005 (ip), vehicle: saline 107 % of control

N#Cc1cc2c3c(c1)CCCN3CCC2
inactive: [6] 91 % of control | [7] 93 % of control | [8] 90 % of control | [15] 96 % of control

CCOC(=O)C(Cc1ccc2ccccc2n1)C(=O)OCC
inactive: dose: 100.0 mg/kg/injection, schedule: Q01DX001 (ip), vehicle: Klucel (hydroxypropylcellulose) (HPC) 100 % of control | dose: 200.0 mg/kg/injection, schedule: Q01DX001 (ip), vehicle: Klucel (hydroxypropylcellulose) (HPC) 106 % of control | dose: 400.0 mg/kg/injection, schedule: Q01DX001 (ip), vehicle: Klucel (hydroxypropylcellulose) (HPC) 100 % of control

CCC[CH2][Sn]([C]#[C][Sn]([CH2]CCC)([CH2]CCC)[CH2]CCC)([CH2]CCC)[CH2]CCC
inactive: dose: 0.39 mg/kg/injection, schedule: Q01DX009 (ip), vehicle: saline 94 % of control | dose: 0.78 mg/kg/injection, schedule: Q01DX009 (ip), vehicle: saline 94 % of control | dose: 1.56 mg/kg/injection, schedule: Q01DX009 (ip), vehicle: saline 97 % of control and 102 % of control | dose: 6.25 mg/kg/injection, schedule: Q01DX009 (ip), vehicle: Klucel (hydroxypropylcellulose) (HPC) 88 % of control | dose: 25.0 mg/kg/injection, schedule: Q04DX002 (ip), vehicle: saline 94 % of control

O=Cc1cc(Cl)ccc1O
inactive: [13] 108 % of control | [14] 102 % of control
